# Laboratory results as given in the supplement of paper PMC10307832.
# Assays:
# Assay in all cases: relative viability (nuclei count vs DMSO), 5 days (fraction); higher = more cells survive
# NCI-H1734 = system: NCI-H1734
# Procedure, shortened: (§1)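 Five library-drug doses in √10 steps were combined with a fixed anchor-drug dose, or a single drug was given alone, by pin tool to lung cancer cell lines in 1536-well plates the day after seeding. Nuclei were stained and counted after 5 days. Relative viability is the nuclei count in treated wells over that in vehicle wells, taken as the median of duplicate plates.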
# NCI-H647 = system: NCI-H647
# Procedure, shortened: as §1
# H3255 = system: H3255
# Procedure, shortened: as §1
# NCI-H2009 = system: NCI-H2009
# Procedure, shortened: as §1
# LCLC-97TM1 = system: LCLC-97TM1
# Procedure, shortened: as §1
# NCI-H2126 = system: NCI-H2126
# Procedure, shortened: as §1
# NCI-H727 = system: NCI-H727
# Procedure, shortened: as §1
# NCI-H1993 = system: NCI-H1993
# Procedure, shortened: as §1
# SW 1573 = system: SW 1573
# Procedure, shortened: as §1
# PC-14 = system: PC-14
# Procedure, shortened: as §1
# LXF-289 = system: LXF-289
# Procedure, shortened: as §1
# NCI-H2347 = system: NCI-H2347
# Procedure, shortened: as §1
# EMC-BAC-2 = system: EMC-BAC-2
# Procedure, shortened: as §1
# EPLC-272H = system: EPLC-272H
# Procedure, shortened: as §1
# NCI-H661 = system: NCI-H661
# Procedure, shortened: as §1
# HOP-62 = system: HOP-62
# Procedure, shortened: as §1
# SK-LU-1 = system: SK-LU-1
# Procedure, shortened: as §1
# NCI-H322M = system: NCI-H322M
# Procedure, shortened: as §1
# NCI-H2085 = system: NCI-H2085
# Procedure, shortened: as §1
# NCI-H2023 = system: NCI-H2023
# Procedure, shortened: as §1
# NCI-H1915 = system: NCI-H1915
# Procedure, shortened: as §1
smiles,measurement,setting,value
Nc1ccn([C@@H]2O[C@H](CO)[C@@H](O)[C@@H]2O)c(=O)n1 [Cytarabine] + CC(=O)c1c(C)c2cnc(Nc3ccc(N4CCNCC4)cn3)nc2n(C2CCCC2)c1=O [Palbociclib] (partner 0.5 µM),relative viability,NCI-H1734; first compound 0.005 µM,0.305
same,relative viability,NCI-H1734; first compound 0.01581 µM,0.214
same,relative viability,NCI-H1734; first compound 0.05 µM,0.237
same,relative viability,NCI-H1734; first compound 0.1581 µM,0.153
same,relative viability,NCI-H1734; first compound 0.5 µM,0.155
same,relative viability,NCI-H647; first compound 0.005 µM,0.316
same,relative viability,NCI-H647; first compound 0.01581 µM,0.206
same,relative viability,NCI-H647; first compound 0.05 µM,0.207
same,relative viability,NCI-H647; first compound 0.1581 µM,0.0933
same,relative viability,NCI-H647; first compound 0.5 µM,0.0634
same,relative viability,H3255; first compound 0.005 µM,0.33
same,relative viability,H3255; first compound 0.01581 µM,0.32
same,relative viability,H3255; first compound 0.05 µM,0.281
same,relative viability,H3255; first compound 0.1581 µM,0.265
same,relative viability,H3255; first compound 0.5 µM,0.261
same,relative viability,NCI-H2009; first compound 0.005 µM,0.211
same,relative viability,NCI-H2009; first compound 0.01581 µM,0.192
same,relative viability,NCI-H2009; first compound 0.05 µM,0.187
same,relative viability,NCI-H2009; first compound 0.1581 µM,0.154
same,relative viability,NCI-H2009; first compound 0.5 µM,0.125
same,relative viability,LCLC-97TM1; first compound 0.005 µM,0.186
same,relative viability,LCLC-97TM1; first compound 0.01581 µM,0.135
same,relative viability,LCLC-97TM1; first compound 0.05 µM,0.198
same,relative viability,LCLC-97TM1; first compound 0.1581 µM,0.124
same,relative viability,LCLC-97TM1; first compound 0.5 µM,0.0884
same,relative viability,NCI-H2126; first compound 0.005 µM,0.352
same,relative viability,NCI-H2126; first compound 0.01581 µM,0.312
same,relative viability,NCI-H2126; first compound 0.05 µM,0.298
same,relative viability,NCI-H2126; first compound 0.1581 µM,0.277
same,relative viability,NCI-H2126; first compound 0.5 µM,0.261
same,relative viability,NCI-H727; first compound 0.005 µM,0.613
same,relative viability,NCI-H727; first compound 0.01581 µM,0.556
same,relative viability,NCI-H727; first compound 0.05 µM,0.599
same,relative viability,NCI-H727; first compound 0.1581 µM,0.554
same,relative viability,NCI-H727; first compound 0.5 µM,0.505
same,relative viability,NCI-H1993; first compound 0.005 µM,0.714
same,relative viability,NCI-H1993; first compound 0.01581 µM,0.489
same,relative viability,NCI-H1993; first compound 0.05 µM,0.518
same,relative viability,NCI-H1993; first compound 0.1581 µM,0.507
same,relative viability,NCI-H1993; first compound 0.5 µM,0.323
same,relative viability,SW 1573; first compound 0.005 µM,0.334
same,relative viability,SW 1573; first compound 0.01581 µM,0.407
same,relative viability,SW 1573; first compound 0.05 µM,0.281
same,relative viability,SW 1573; first compound 0.1581 µM,0.147
same,relative viability,SW 1573; first compound 0.5 µM,0.117
same,relative viability,PC-14; first compound 0.005 µM,0.432
same,relative viability,PC-14; first compound 0.01581 µM,0.366
same,relative viability,PC-14; first compound 0.05 µM,0.365
same,relative viability,PC-14; first compound 0.1581 µM,0.0885
same,relative viability,PC-14; first compound 0.5 µM,0.0651
same,relative viability,LXF-289; first compound 0.005 µM,0.49
same,relative viability,LXF-289; first compound 0.01581 µM,0.563
same,relative viability,LXF-289; first compound 0.05 µM,0.511
same,relative viability,LXF-289; first compound 0.1581 µM,0.296
same,relative viability,LXF-289; first compound 0.5 µM,0.287
same,relative viability,NCI-H2347; first compound 0.005 µM,0.416
same,relative viability,NCI-H2347; first compound 0.01581 µM,0.433
same,relative viability,NCI-H2347; first compound 0.05 µM,0.413
same,relative viability,NCI-H2347; first compound 0.1581 µM,0.386
same,relative viability,NCI-H2347; first compound 0.5 µM,0.407
same,relative viability,EMC-BAC-2; first compound 0.005 µM,0.51
same,relative viability,EMC-BAC-2; first compound 0.01581 µM,0.501
same,relative viability,EMC-BAC-2; first compound 0.05 µM,0.463
same,relative viability,EMC-BAC-2; first compound 0.1581 µM,0.353
same,relative viability,EMC-BAC-2; first compound 0.5 µM,0.303
same,relative viability,EPLC-272H; first compound 0.005 µM,0.319
same,relative viability,EPLC-272H; first compound 0.01581 µM,0.29
same,relative viability,EPLC-272H; first compound 0.05 µM,0.281
same,relative viability,EPLC-272H; first compound 0.1581 µM,0.249
same,relative viability,EPLC-272H; first compound 0.5 µM,0.219
same,relative viability,NCI-H661; first compound 0.005 µM,0.429
same,relative viability,NCI-H661; first compound 0.01581 µM,0.393
same,relative viability,NCI-H661; first compound 0.05 µM,0.377
same,relative viability,NCI-H661; first compound 0.1581 µM,0.353
same,relative viability,NCI-H661; first compound 0.5 µM,0.251
same,relative viability,HOP-62; first compound 0.005 µM,0.395
same,relative viability,HOP-62; first compound 0.01581 µM,0.297
same,relative viability,HOP-62; first compound 0.05 µM,0.234
same,relative viability,HOP-62; first compound 0.1581 µM,0.139
same,relative viability,HOP-62; first compound 0.5 µM,0.155
same,relative viability,SK-LU-1; first compound 0.005 µM,0.371
same,relative viability,SK-LU-1; first compound 0.01581 µM,0.419
same,relative viability,SK-LU-1; first compound 0.05 µM,0.271
same,relative viability,SK-LU-1; first compound 0.1581 µM,0.307
same,relative viability,SK-LU-1; first compound 0.5 µM,0.284
same,relative viability,NCI-H322M; first compound 0.005 µM,0.414
same,relative viability,NCI-H322M; first compound 0.01581 µM,0.492
same,relative viability,NCI-H322M; first compound 0.05 µM,0.42
same,relative viability,NCI-H322M; first compound 0.1581 µM,0.385
same,relative viability,NCI-H322M; first compound 0.5 µM,0.383
same,relative viability,NCI-H2085; first compound 0.005 µM,0.445
same,relative viability,NCI-H2085; first compound 0.01581 µM,0.425
same,relative viability,NCI-H2085; first compound 0.05 µM,0.393
same,relative viability,NCI-H2085; first compound 0.1581 µM,0.294
same,relative viability,NCI-H2085; first compound 0.5 µM,0.266
same,relative viability,NCI-H2023; first compound 0.005 µM,0.378
same,relative viability,NCI-H2023; first compound 0.01581 µM,0.221
same,relative viability,NCI-H2023; first compound 0.05 µM,0.129
same,relative viability,NCI-H2023; first compound 0.1581 µM,0.0971
same,relative viability,NCI-H2023; first compound 0.5 µM,0.088
same,relative viability,NCI-H1915; first compound 0.005 µM,0.532
same,relative viability,NCI-H1915; first compound 0.01581 µM,0.47
same,relative viability,NCI-H1915; first compound 0.05 µM,0.37
same,relative viability,NCI-H1915; first compound 0.1581 µM,0.265
same,relative viability,NCI-H1915; first compound 0.5 µM,0.2
